Reference: US10603298B2, “Succinate dehydrogenase inhibitors (SDHi's)” (Medical Research Council, priority 2014, dated 2020)

Columns and labels:
[1] = administered orally; cited from earlier work
[2] = system: mouse heart IR injury (myocardial infarction); test: In vivo mouse cardiac IR injury (LAD ligation), infarct size by triphenyltetrazolium chloride staining; conditions: i.v. infusion 4 mg/kg/min prior to and throughout ischaemia
Experimental: For the in vivo heart IR model an open-chest, in situ heart model was used^31,32. Male mice (8-10 weeks; Charles River Laboratories, UK) were anaesthetised with sodium pentobarbital (70 mg/kg intraperitoneally (i.p.)), intubated endotracheally and ventilated with 3 cm H2O positive-end expiratory pressure. Adequacy of anaesthesia was monitored using corneal and withdrawal reflexes. Ventilation frequency was kept at 110 breaths per minute with tidal volume between 125-150 μL. A thoracotomy was performed and the heart exposed by stripping the pericardium. A prominent branch of the left anterior descending coronary artery (LAD) was surrounded by a 7-0 Prolene suture that was then passed through a small plastic tube. Ischaemia was induced by tightening the tubing against the heart surface. To assess metabolites during IR in vivo, mice were divided into three groups: 30 min ischaemia, 30 min ischaemia plus 5 min reperfusion and 30 min sham-operation in which the suture was placed but the LAD was not occluded. At the end of each protocol tissue was removed from the at risk and peripheral areas of the heart, selected visually by comparing white versus red tissue, and snap-frozen in liquid nitrogen. […] Infarct size was assessed after 30 min of ischaemia followed by 120 min reperfusion using 2% triphenyltetrazolium chloride staining and is expressed as a percentage of the risk zone^33. […]

[3] = Malonate level in the ischaemic myocardium after i.v. dimethyl malonate (LC-MS); parameters: species or system mouse; conditions: intravenous infusion of dimethyl malonate in vivo
Experimental: In addition, as shown in FIG. 5a the cell permeability of the compound may be determined by comparing the level of the compound in an untreated cell with that of a treated cell. Typically, the level of the compound may be determined using LC/MS as detailed in the metabolomic analysis in the Examples.
Infarct size was assessed after 30 min of ischaemia followed by 120 min reperfusion using 2% triphenyltetrazolium chloride staining and is expressed as a percentage of the risk zone^33. […] Control mice were infused with sterile saline. The total volume administered never exceeded 200 μL/mouse.
Equal amounts wet weight murine tissue were lysed in 250 μL extraction solution (ES; 30% acetonitrile, 50% methanol and 20% water) per 10 mg tissue in Precellysis 24 vials, following the manufacturer's instructions. […] For the LC separation, column A was Sequant Zic-Hilic (150 mm×4.6 mm, internal diameter 3.5 μm) with a guard column (20 mm×2.1 mm 3.5 μm) from HiChrom, Reading, UK. […] Gradient: 0-3 min 80% B, 25 min 20% B, 26 min 80% B, 36 min 80% B. Column B was sequant Zic-pHilic (150 mm×2.1 mm i.d. 3.5 μm) with guard column (20 mm×2.1 mm i.d. […]) from HiChrom, Reading, UK. […] Spectra were analysed using both targeted and untargeted approaches. […] The arrays of spectra were then statistically analysed using the functions explore.data and univariate of the R package mum a^40.

COC(=O)CC(=O)OC [dimethyl malonate]
LD50 [1]: approximately 5 gms per kilogram | protection against cardiac IR injury (infarct size) [2]: protective | accumulation of malonate in the ischaemic myocardium [3]: results in accumulation of malonate
